For series [1] the following is noted: mice, after administration of 23 mg/kg; cited from earlier work.
Series [2] has as its system mutant p53 binding to the HMG-CoA reductase gene promoter. Description: Quantitative ChIP of mutant p53 in fatostatin-treated MDA-468.shp53 cells. Particulars: fatostatin 20 μM, six independent experiments, p<0.01. The format is cell-based. The method, then: FIG. 1. MDA-468.shp53 cells were treated with fatostatin (20 μM) and subjected to ChIP analysis. Data are presented as mean+−SD of six independent experiments. **p<0.01
Chromatin Immunoprecipitation (ChIP) experiments were carried out as described in Beckerman et al., 2009. Briefly, MDA-468 cells were treated with 1% formaldehyde prior to lysis in RIPA Buffer and sonication to yield 500 bp fragments. Protein A/G Sepharose beads were conjugated to anti-p53 antibodies (1801/D0-1) which were subsequently used to immunoprecipitate p53 from 1 mg whole cell lysate. Quantitative ChIP was carried out on an ABI StepOne Plus using SYBR green dye. Genomic Locations of SRE-1 sites within the promoters of sterol biosynthesis genes were located using a literature search: HMGCS 1 (Inoue et al., 1998), HMGCR (Boone et al., 2009), MVK (Bishop et al., 1998), FDPS (Ishimoto et al., 2010), FDFT1 (Inoue et al., 1998), SQLE (Nagai et al., 2002) and CYP51A1 (Halder et al., 2002), respectively. ChIP primer sequences are provided in Table 2 of PCT/US 11/55488 and are incorporated by reference.
MDA-468.shp53 cells were treated with Fatostatin (20 μM) and subjected to ChIP analysis. FIG. 1. Cells in 3D culture were treated on Day 1 or Day 4 of the 3D protocol and refed every 4 days with fresh drug. Data are presented as mean+−SD of six independent experiments. **p<0.01.

Another series concerns MDA-231 cells. The experiment in a line: Three-dimensional culture of MDA-231.shp53 cells. The format is cell-based. The note with it: 3D culture 8 days, fatostatin 2 or 20 μM added day 1. The protocol:
FIG. 2. MDA-231.shp53 cells were grown in 3D cultures for 8 days and treated with (A) DMSO, (B) Fatostatin 2 μM or (C) Fatostatin 20 μM. Drugs were added on day 1. Representative DIC images are shown. Scale bar, 200 μm.
(§1) Three-dimensional culture was carried out as described in Debnath et al., 2003. Briefly, 8-well chamber slides were lined with 50 μl growth factor reduced Matrigel (BD Biosciences). Cells were then seeded at a density of 5,000 cells/well in Assay Medium (DMEM/F12+2% Horse Serum+10 μg/ml Insulin+0.5 μg/ml Hydrocortisone) containing 2% Matrigel. Cells were refed with Assay Medium containing 2% Matrigel every 4 days. For RNA/protein analysis from 3D cultures, 35 mm plates were lined with 500 μl Matrigel and cells were seeded at a density of 225,000 cells/plate in Assay Medium+2% Matrigel. Cells were harvested using Cell Recovery Solution (BD Biosciences) according to the manufacturer's instructions.
MDA-231.shp53 cells were grown in 3D cultures for 8 days and treated with DMSO and fatostatin (2 or 20 μM). Drugs were added on day 1. Representative DIC images are shown. FIG. 2. Scale bar, […].

A further series concerns SKBR3 cells. Description: Three-dimensional culture of SKBR3 cells. The format is cell-based. The note with it: 3D culture 8 days, fatostatin 2 or 20 μM added Day 1. The protocol:
FIG. 3. Fatostatin inhibits SKBR3 cell growth in 3D Culture. SKBR3 cells were grown in 3D cultures for 8 days treated with (A) DMSO, (B) Fatostatin 2 μM or (C) Fatostatin 20 μM. Drugs were added on Day 1. Representative Differential Interference Contrast (DIC) images are shown. Scale bar, 200 μm.
as §1
SKBR3 cells were grown in 3D cultures for 8 days treated with DMSO, Fatostatin (2 μM) or (20 μM). Drugs were added on Day 1.

In another series the test system is MDA-468 cells. Description: Three-dimensional culture of MDA-468.shp53 cells. The format is cell-based. The note with it: 3D culture 10 days, fatostatin 2 or 20 μM added Day 1. The method, then: FIG. 4. Fatostatin inhibits MDA-468 cell growth in 3D Culture. MDA-468.shp53 cells were grown in 3D cultures for 10 days treated with (A) DMSO, (B) Fatostatin 2 μM or (C) Fatostatin 20 μM. Drugs were added on Day 1. Representative Differential Interference Contrast (DIC) images are shown. Scale bar, 200 μm.
as §1
MDA-468.shp53 cells were grown in 3D cultures for 10 days treated with DMSO, Fatostatin (2 μM) or (20 μM). Drugs were added on Day 1.

`CCCc1cc(-c2nc(-c3ccc(NS(C)(=O)=O)cc3)cs2)ccn1` [N-(4-(2-(2-Propylpyridin-4-yl)thiazol-4-yl)phenyl)methanesulfonamide]: in series [1], the oral availability result is listed as “demonstrated”.

For the compound `CCCc1cc(-c2nc(-c3ccc(C)cc3)cs2)ccn1` [fatostatin, 2-Propyl-4-(4-(p-tolyl)thiazol-2-yl) pyridine], the “level of mutant p53 binding to the HMG-CoA reductase gene promoter” value in series [2] was “significantly reduced”. In addition, the “cell growth in 3D culture” value with MDA-231 cells, in the series with SKBR3 cells and in the series on MDA-468 cells was “inhibited” in each case. Besides, the “normalizing the abnormal 3D morphology” value in the series on MDA-231 cells, in the series with SKBR3 cells and in the series with MDA-468 cells was “dramatic effect on normalizing the abnormal 3D morphology” each time.

The values above are taken from US20140364460A1, “USE OF FATOSTATIN FOR TREATING CANCER HAVING A p53 MUTATION” (THE TRUSTEES OF COLUMBIA UNIVERSITY IN THE CITY OF NEW YORK, priority 2012, published 2014).
